The source of these data is paper PMC9856672, “SGC-CAMKK2-1: A Chemical Probe for CAMKK2” (Cells, 2023).

Structures are written as SMILES.

The target of test [1] is T1, PIM1 (Homo sapiens, UniProt P11309).
T1 construct: purchased Eurofins DiscoverX KINOMEscan
Nature of the test: KINOMEscan 1 μM, PIM1. The format is binding. The note with it: 1000 nM; Entrez PIM1; read-out: Percent Control. An excerpt:
(§1) Supplement cells-12-00287-s001.zip/File S2. KinomeScan data for the CAMKK2 probe and negative control.xlsx, sheet "SGC-CAMKK2-1" | column: Percent Control

Test [2] concerns the target T2, MLCK (Homo sapiens, UniProt Q32MK0).
T2 construct: purchased Eurofins DiscoverX KINOMEscan
The experiment in a line: KINOMEscan 1 μM, MLCK. It counts as binding. The note with it: 1000 nM; Entrez MYLK3; read-out: Percent Control.
From the text: as §1

In test [3] the target is T3, NEK10 (Homo sapiens, UniProt Q6ZWH5).
T3 construct: purchased Eurofins DiscoverX KINOMEscan
T3 sequence (Q6ZWH5 whole entry): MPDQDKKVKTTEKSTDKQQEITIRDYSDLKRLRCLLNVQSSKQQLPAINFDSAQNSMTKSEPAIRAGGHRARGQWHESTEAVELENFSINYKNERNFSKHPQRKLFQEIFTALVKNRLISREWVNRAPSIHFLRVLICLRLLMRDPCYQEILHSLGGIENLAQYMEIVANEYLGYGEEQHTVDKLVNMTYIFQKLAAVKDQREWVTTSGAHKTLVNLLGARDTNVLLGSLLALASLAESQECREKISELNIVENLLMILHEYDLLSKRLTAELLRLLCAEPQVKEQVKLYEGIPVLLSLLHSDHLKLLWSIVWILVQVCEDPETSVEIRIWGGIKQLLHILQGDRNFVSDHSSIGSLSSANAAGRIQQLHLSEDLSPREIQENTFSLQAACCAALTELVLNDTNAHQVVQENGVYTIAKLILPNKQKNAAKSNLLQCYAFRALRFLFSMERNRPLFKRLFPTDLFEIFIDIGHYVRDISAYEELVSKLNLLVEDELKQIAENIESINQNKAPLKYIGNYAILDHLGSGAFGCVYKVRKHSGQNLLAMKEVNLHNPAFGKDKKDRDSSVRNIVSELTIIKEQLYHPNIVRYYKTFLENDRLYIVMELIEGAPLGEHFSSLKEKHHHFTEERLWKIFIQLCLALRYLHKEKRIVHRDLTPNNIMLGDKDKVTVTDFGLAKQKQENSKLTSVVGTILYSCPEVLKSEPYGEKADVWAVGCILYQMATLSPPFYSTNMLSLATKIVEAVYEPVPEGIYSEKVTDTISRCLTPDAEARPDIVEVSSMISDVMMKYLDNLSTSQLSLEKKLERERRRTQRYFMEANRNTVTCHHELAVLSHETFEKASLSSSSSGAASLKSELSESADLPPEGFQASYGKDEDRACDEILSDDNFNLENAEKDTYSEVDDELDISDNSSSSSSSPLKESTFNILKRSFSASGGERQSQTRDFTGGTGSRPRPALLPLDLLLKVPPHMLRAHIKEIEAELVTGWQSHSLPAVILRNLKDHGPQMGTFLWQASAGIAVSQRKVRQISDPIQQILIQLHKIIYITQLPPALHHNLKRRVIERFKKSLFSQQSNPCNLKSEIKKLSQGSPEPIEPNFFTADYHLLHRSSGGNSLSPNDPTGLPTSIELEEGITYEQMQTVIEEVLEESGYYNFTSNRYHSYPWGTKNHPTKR
Nature of the test: KINOMEscan 1 μM, NEK10. Conditions: 1000 nM; Entrez NEK10; read-out: Percent Control. The format is binding.
From the text: as §1

The target in test [4] is T4, MLK3 (Homo sapiens, UniProt Q16584).
T4 construct: purchased Eurofins DiscoverX KINOMEscan
Nature of the test: KINOMEscan 1 μM, MLK3. It counts as binding. Conditions: 1000 nM; Entrez MAP3K11; read-out: Percent Control.
From the text: as §1

Test [5] has as its target T5, EPHA4 (Homo sapiens, UniProt P54764).
T5 construct: purchased Eurofins DiscoverX KINOMEscan
The experiment in a line: KINOMEscan 1 μM, EPHA4. The format is binding. The note with it: 1000 nM; Entrez EPHA4; read-out: Percent Control.
From the text: as §1

The target of test [6] is T6, PCTK3 (Homo sapiens, UniProt Q07002).
T6 construct: purchased Eurofins DiscoverX KINOMEscan
T6 sequence (Q07002 whole entry): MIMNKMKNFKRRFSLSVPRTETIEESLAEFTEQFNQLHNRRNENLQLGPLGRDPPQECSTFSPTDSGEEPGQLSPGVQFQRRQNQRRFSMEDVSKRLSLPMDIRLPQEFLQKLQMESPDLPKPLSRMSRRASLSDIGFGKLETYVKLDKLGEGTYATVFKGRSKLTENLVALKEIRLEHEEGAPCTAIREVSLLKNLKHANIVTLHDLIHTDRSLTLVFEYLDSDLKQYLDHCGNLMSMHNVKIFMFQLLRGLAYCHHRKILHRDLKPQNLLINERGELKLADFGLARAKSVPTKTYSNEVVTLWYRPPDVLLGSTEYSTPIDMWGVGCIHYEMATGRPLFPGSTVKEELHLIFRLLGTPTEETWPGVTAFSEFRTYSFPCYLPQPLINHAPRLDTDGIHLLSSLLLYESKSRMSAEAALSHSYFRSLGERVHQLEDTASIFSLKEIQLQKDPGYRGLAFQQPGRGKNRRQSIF
The experiment in a line: KINOMEscan 1 μM, PCTK3. The format is binding. Conditions: 1000 nM; Entrez CDK18; read-out: Percent Control.
From the text: as §1

Test [7] addresses T7, ABL1(H396P)-nonphosphorylated (Homo sapiens, UniProt P00519, H396P).
T7 construct: purchased Eurofins DiscoverX KINOMEscan
Nature of the test: KINOMEscan 1 μM, ABL1(H396P)-nonphosphorylated. The format is binding. The note with it: 1000 nM; Entrez ABL1; read-out: Percent Control.
From the text: as §1

Test [8] has as its target T8, ALK(C1156Y) (Homo sapiens, UniProt Q9UM73, C1156Y).
T8 construct: purchased Eurofins DiscoverX KINOMEscan
The experiment in a line: KINOMEscan 1 μM, ALK(C1156Y). The format is binding. Conditions: 1000 nM; Entrez ALK; read-out: Percent Control.
From the text: as §1

For test [9], the target named is T9, DYRK1B (Homo sapiens, UniProt Q9Y463).
T9 construct: purchased Eurofins DiscoverX KINOMEscan
T9 sequence (Q9Y463 whole entry): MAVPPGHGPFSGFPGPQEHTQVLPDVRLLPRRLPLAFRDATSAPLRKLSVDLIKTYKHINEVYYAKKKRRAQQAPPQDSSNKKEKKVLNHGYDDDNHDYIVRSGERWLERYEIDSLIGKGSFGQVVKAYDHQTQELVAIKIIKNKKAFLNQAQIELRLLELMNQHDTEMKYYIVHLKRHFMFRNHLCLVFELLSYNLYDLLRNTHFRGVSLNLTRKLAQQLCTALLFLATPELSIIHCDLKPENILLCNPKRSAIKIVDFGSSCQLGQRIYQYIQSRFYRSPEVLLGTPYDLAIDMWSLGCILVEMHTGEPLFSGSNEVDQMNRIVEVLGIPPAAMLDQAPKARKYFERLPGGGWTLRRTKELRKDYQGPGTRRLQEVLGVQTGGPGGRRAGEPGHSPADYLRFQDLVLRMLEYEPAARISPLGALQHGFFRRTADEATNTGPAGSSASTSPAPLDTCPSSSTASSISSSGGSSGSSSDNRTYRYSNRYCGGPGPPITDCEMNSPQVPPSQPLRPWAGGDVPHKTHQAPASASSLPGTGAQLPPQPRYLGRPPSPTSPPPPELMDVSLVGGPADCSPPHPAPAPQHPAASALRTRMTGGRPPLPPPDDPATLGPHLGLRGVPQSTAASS
Nature of the test: KINOMEscan 1 μM, DYRK1B. The note with it: 1000 nM; Entrez DYRK1B; read-out: Percent Control. The format is binding.
From the text: as §1

In test [10] the target is T10, EGFR(L858R,T790M) (Homo sapiens, UniProt P00533, L858R/T790M).
T10 construct: purchased Eurofins DiscoverX KINOMEscan
The experiment in a line: KINOMEscan 1 μM, EGFR(L858R,T790M). It counts as binding. The note with it: 1000 nM; Entrez EGFR; read-out: Percent Control.
From the text: as §1

The target in test [11] is T11, FRK (Homo sapiens, UniProt P42685).
T11 construct: purchased Eurofins DiscoverX KINOMEscan
The experiment in a line: KINOMEscan 1 μM, FRK. The format is binding. Conditions: 1000 nM; Entrez FRK; read-out: Percent Control.
From the text: as §1

For test [12], the target named is T12, LOK (Homo sapiens, UniProt O94804).
T12 construct: purchased Eurofins DiscoverX KINOMEscan
The experiment in a line: KINOMEscan 1 μM, LOK. It counts as binding. Conditions: 1000 nM; Entrez STK10; read-out: Percent Control.
From the text: as §1

The target in test [13] is T13, RSK4(Kin.Dom.1-N-terminal) (Homo sapiens, UniProt Q9UK32).
T13 construct: RSK4(Kin.Dom.1-N-terminal); purchased Eurofins DiscoverX KINOMEscan
T13 sequence (Q9UK32 1-400 limits assumed): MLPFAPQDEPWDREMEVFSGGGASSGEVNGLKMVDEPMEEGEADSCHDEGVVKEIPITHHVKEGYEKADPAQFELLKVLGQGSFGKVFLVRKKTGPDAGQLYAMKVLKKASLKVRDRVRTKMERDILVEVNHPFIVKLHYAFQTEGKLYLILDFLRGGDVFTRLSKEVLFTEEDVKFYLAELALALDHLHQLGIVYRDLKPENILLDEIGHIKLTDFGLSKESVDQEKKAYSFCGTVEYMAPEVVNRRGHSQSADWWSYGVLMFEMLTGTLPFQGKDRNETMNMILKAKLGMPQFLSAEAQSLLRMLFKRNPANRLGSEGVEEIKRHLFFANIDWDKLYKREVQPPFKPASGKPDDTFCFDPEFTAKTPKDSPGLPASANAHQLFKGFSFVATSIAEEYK
Nature of the test: DiscoverX KINOMEscan binding assay at 1 μM, RSK4(Kin.Dom.1-N-terminal). The note with it: RSK4(Kin.Dom.1-N-terminal) (RPS6KA6); Compound Concentration 1000 nM; read-out: Percent Control.
From the text: as §1

Test [14] deals with T14, CAMK1D (Homo sapiens, UniProt Q8IU85).
T14 construct: purchased Eurofins DiscoverX KINOMEscan
T14 sequence (Q8IU85 whole entry): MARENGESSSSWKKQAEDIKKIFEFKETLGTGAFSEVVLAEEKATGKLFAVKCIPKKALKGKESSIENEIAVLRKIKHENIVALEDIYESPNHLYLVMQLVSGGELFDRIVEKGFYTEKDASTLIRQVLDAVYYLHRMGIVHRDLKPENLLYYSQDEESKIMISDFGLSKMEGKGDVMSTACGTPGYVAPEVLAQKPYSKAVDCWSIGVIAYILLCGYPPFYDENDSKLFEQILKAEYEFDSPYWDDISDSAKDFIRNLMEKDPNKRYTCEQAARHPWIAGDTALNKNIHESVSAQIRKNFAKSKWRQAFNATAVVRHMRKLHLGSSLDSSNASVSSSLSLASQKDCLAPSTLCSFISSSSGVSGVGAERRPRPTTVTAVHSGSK
The experiment in a line: KINOMEscan at 1 μM, CAMK1D. It counts as binding. The note with it: 1000 nM, read-out: Percent Control. The source says: (§2) Supplement cells-12-00287-s001.zip/File S2. KinomeScan data for the CAMKK2 probe and negative control.xlsx, sheet "SGC-CAMKK2-1N" | column: Percent Control

Test [15] concerns the target T15, FGFR3(G697C) (Homo sapiens, UniProt P22607, G697C).
T15 construct: purchased Eurofins DiscoverX KINOMEscan
The experiment in a line: KINOMEscan at 1 μM, FGFR3(G697C). It counts as binding. The note with it: 1000 nM, read-out: Percent Control.
From the text: as §2

The target of test [16] is T16, PIK3CB (Homo sapiens, UniProt P42338).
T16 construct: purchased Eurofins DiscoverX KINOMEscan
The experiment in a line: KINOMEscan at 1 μM, PIK3CB. Conditions: 1000 nM, read-out: Percent Control. The format is binding.
From the text: as §2

Test [17] has as its target T17, ABL1(M351T)-phosphorylated (Homo sapiens, UniProt P00519, M351T).
T17 construct: purchased Eurofins DiscoverX KINOMEscan
Nature of the test: KINOMEscan at 1 μM, ABL1(M351T)-phosphorylated. It counts as binding. The note with it: 1000 nM, read-out: Percent Control.
From the text: as §2

The target of test [18] is T18, SgK110 (Homo sapiens, UniProt P0C264).
T18 construct: purchased Eurofins DiscoverX KINOMEscan
Nature of the test: KINOMEscan at 1 μM, SgK110. The format is binding. Conditions: 1000 nM, read-out: Percent Control.
From the text: as §2

Test [19] concerns the target T19, RSK2(Kin.Dom.2-C-terminal) (Homo sapiens, UniProt P51812).
T19 construct: RSK2(Kin.Dom.2-C-terminal); purchased Eurofins DiscoverX KINOMEscan
The experiment in a line: KINOMEscan at 1 μM, RSK2(Kin.Dom.2-C-terminal). It counts as binding. Conditions: 1000 nM, read-out: Percent Control.
From the text: as §2

For test [20], the target named is T20, JNK2 (Homo sapiens, UniProt P45984).
T20 construct: purchased Eurofins DiscoverX KINOMEscan
T20 sequence (P45984 whole entry): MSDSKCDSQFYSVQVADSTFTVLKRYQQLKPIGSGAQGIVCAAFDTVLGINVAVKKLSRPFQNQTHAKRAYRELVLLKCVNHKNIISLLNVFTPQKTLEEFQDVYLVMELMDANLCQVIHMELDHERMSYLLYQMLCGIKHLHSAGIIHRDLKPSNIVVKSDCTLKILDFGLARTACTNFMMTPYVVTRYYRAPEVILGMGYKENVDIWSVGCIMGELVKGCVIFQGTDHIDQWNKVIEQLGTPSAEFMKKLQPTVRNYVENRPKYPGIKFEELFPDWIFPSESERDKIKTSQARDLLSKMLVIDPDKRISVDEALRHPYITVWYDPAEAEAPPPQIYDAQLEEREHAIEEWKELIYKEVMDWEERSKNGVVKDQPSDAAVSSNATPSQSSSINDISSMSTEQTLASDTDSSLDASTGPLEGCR
Nature of the test: KINOMEscan at 1 μM, JNK2. The format is binding. Conditions: 1000 nM, read-out: Percent Control.
From the text: as §2

The target of test [21] is T21, CLK3 (Homo sapiens, UniProt P49761).
T21 construct: purchased Eurofins DiscoverX KINOMEscan
Nature of the test: KINOMEscan at 1 μM, CLK3. It counts as binding. Conditions: 1000 nM, read-out: Percent Control.
From the text: as §2

In test [22] the target is T22, RSK2(Kin.Dom.1-N-terminal) (Homo sapiens, UniProt P51812).
T22 construct: RSK2(Kin.Dom.1-N-terminal); purchased Eurofins DiscoverX KINOMEscan
The experiment in a line: KINOMEscan at 1 μM, RSK2(Kin.Dom.1-N-terminal). The format is binding. The note with it: 1000 nM, read-out: Percent Control.
From the text: as §2

For test [23], the target named is T23, MAP4K5 (Homo sapiens, UniProt Q9Y4K4).
T23 construct: purchased Eurofins DiscoverX KINOMEscan
Nature of the test: KINOMEscan at 1 μM, MAP4K5. The note with it: 1000 nM, read-out: Percent Control. The format is binding.
From the text: as §2

For test [24], the target named is T13, RSK4(Kin.Dom.1-N-terminal). The experiment in a line: KINOMEscan at 1 μM, RSK4(Kin.Dom.1-N-terminal). Conditions: 1000 nM, read-out: Percent Control. It counts as binding.
From the text: as §2

Test [25] addresses T24, PIK3CA(E545K) (Homo sapiens, UniProt P42336, E545K).
T24 construct: purchased Eurofins DiscoverX KINOMEscan
Nature of the test: KINOMEscan at 1 μM, PIK3CA(E545K). The format is binding. The note with it: 1000 nM, read-out: Percent Control.
From the text: as §2

Test [26] addresses T25, RIOK2 (Homo sapiens, UniProt Q9BVS4).
T25 construct: purchased Eurofins DiscoverX KINOMEscan
The experiment in a line: KINOMEscan at 1 μM, RIOK2. The format is binding. Conditions: 1000 nM, read-out: Percent Control.
From the text: as §2

In test [27] the target is T26, FAK (Homo sapiens, UniProt Q05397).
T26 construct: purchased Eurofins DiscoverX KINOMEscan
The experiment in a line: KINOMEscan at 1 μM, FAK. Conditions: 1000 nM, read-out: Percent Control. The format is binding.
From the text: as §2

Test [28] addresses T27, RET(M918T) (Homo sapiens, UniProt P07949, M918T).
T27 construct: purchased Eurofins DiscoverX KINOMEscan
The experiment in a line: KINOMEscan at 1 μM, RET(M918T). The note with it: 1000 nM, read-out: Percent Control. The format is binding.
From the text: as §2

In test [29] the target is T28, EGFR(E746-A750del) (Homo sapiens, UniProt P00533, DEL746-750).
T28 construct: purchased Eurofins DiscoverX KINOMEscan
The experiment in a line: KINOMEscan at 1 μM, EGFR(E746-A750del). The format is binding. Conditions: 1000 nM, read-out: Percent Control.
From the text: as §2

Test [30] relates to FLT3(ITD,D835V). Nature of the test: KINOMEscan binding assay at 1 μM, FLT3(ITD,D835V). On the set-up: species or system human. Conditions: Compound Concentration 1000 nM.
From the text: as §2

The target of test [31] is T29, p38-beta (Homo sapiens, UniProt Q15759).
T29 construct: purchased Eurofins DiscoverX KINOMEscan
Nature of the test: KINOMEscan binding assay at 1 μM, p38-beta. The note with it: Compound Concentration 1000 nM; read-out: Percent Control.
From the text: as §2

T25 sequence (Q9BVS4 whole entry): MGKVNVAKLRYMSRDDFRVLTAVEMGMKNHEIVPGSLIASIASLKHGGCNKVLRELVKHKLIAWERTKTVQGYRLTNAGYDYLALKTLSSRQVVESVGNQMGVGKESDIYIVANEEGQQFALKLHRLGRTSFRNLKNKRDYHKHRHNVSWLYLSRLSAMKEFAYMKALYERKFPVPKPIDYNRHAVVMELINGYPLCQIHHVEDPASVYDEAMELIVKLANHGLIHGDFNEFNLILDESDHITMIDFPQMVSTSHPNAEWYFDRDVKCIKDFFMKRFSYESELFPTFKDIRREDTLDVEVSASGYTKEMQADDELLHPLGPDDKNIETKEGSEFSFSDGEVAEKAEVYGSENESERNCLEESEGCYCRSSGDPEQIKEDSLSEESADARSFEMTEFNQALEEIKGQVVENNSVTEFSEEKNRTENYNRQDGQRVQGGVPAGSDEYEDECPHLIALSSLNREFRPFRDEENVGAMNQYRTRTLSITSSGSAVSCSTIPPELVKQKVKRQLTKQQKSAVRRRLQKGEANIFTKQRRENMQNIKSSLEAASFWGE
T19 sequence (P51812 398-740 limits assumed): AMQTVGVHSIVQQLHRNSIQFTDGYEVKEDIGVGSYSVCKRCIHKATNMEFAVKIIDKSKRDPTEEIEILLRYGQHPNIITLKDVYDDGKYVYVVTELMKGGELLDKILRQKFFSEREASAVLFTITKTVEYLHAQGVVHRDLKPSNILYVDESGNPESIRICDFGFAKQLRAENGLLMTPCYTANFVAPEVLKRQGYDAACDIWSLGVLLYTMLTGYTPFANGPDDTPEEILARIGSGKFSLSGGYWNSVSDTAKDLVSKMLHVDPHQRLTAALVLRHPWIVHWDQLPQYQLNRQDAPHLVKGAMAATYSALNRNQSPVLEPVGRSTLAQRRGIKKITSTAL
T1 sequence (P11309 whole entry): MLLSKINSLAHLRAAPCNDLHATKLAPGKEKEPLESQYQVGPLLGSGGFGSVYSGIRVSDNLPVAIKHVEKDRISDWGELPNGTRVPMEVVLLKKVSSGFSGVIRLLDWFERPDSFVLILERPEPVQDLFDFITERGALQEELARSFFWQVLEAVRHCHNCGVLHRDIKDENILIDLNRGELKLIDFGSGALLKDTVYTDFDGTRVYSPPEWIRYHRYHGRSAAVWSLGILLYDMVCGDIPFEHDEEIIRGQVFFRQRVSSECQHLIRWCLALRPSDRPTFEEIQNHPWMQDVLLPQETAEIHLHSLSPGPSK

For `Cc1cccc(-c2cnc3occ(-c4ccc(C(=O)O)c(C5CCCC5)c4)c3c2)c1` [SGC-CAMKK2-1 (YL-36)], the remaining binding at 1 µM in test [1] was found to be 76%; in test [2], 86%; in [3] it was 88%; in test [4] it was 89%; in [5], 90%; in [6] it was 99%. For the same compound, the remaining binding at 1 µM in test [7], in test [8], in test [9], in [10], in test [11] and in test [12] was 100% in each case. For the same compound, the remaining binding at 1 µM in test [13] was determined as 100%.
As to `O=C(O)c1ccc(-c2coc3ncc(-c4ccccc4)cc23)cc1Cl` [SGC-CAMKK2-1N (UNC-YL-83)], the remaining binding at 1 µM was 61% in test [14]; 65% in [15]; 67% in test [16]; 68% in test [17]; 69% in test [18]; 70% in test [19]. Further, the remaining binding at 1 µM came out at 76% in [20]; 85% in test [21]; 88% in [22]; 89% in test [23]; 92% in test [24]; 93% in [25]. The remaining binding at 1 µM turned out to be 93% in [26]; 96% in test [27]; 99% in test [28]; 100% in [29]; 100% in test [31]. Moreover, the “Percent Control” value in test [30] turned out to be 100%.
